US7799343B2, “Safer control of broadleaf weeds in turf with granular formulations of ALS inhibiting herbicides” (priority 2006, dated 2010)

Legend:
Type in all cases: in vivo
[1] = tested on: dandelion, Taraxacum officinale (TAROF); test: Postemergent weed control field study, Pennsylvania 2004, TAROF; conditions: Liquid formulation, g ai/Ha: penoxsulam 35, imazaquin 104, bispyribac-sodium 75, trifloxysulfuron-sodium 9.2, metsulfuron-methyl 10.4; for Percent Weed Control TAROF 29DAA: 29 Days After Application; for Percent Weed Control TAROF 56DAA: 56 Days After Application
[2] = tested on: annual bluegrass, Poa annua (POANN); test: Postemergent weed control field study, Pennsylvania 2004, POANN; conditions: g ai/Ha: penoxsulam 35, imazaquin 104, bispyribac-sodium 75, trifloxysulfuron-sodium 9.2, metsulfuron-methyl 10.4; for Percent Weed Control POANN 29DAA: 29 Days After Application; for Percent Weed Control POANN 56DAA: 56 Days After Application
From the text: (§1) The ALS inhibiting herbicides are useful in controlling broadleaf weeds and sedges in turfgrass. They are particularly effective against most important weeds in this application, viz., white clover, Trifolium repens L. (TRFRE); buckhorn plantain, Plantago lanceolata L. (PLALA); dandelion, Taraxacum officinale (TAROF); broadleaf plantain, Plantago major L. (PLAMA); ground ivy, Glechoma hederacea L. (GLEHE); common lespedeza, Lespedeza striata (LESST); pennywort (dollarweed), Hydrocotyle spp (HYDSS); Virginia buttonweed, Diodia virginiana L. (DIQVI) English daisy, Bellis perennis L. (BELPE); annual bluegrass, Poa annua (POANN); and yellow nutsedge, Cypres esculentus L. (CYPES).
(§2) Field studies were conducted in established turfgrass sites containing a natural population of target broadleaf weeds. Replicated trials, containing a minimum of three replications and having individual plots ranging in size from 25 to 50 ft. sq (2.3 to 4.6 square meters), were initiated in the late spring when turf and weeds were actively growing. Granule treatments were uniformly applied to individual plots using a common hand-shaker method. Applications were made in the early morning when dew was present. Natural rainfall and supplemental irrigation were used to maintain healthy turf and active weed growth throughout the study period. Control of each weed species in the study site was made at approximately 2, 4 and 8 weeks after treatment. Control was determined visually by comparing treated and untreated weeds and scored on a 0 to 100 percent scale where 0 corresponds to no control and 100 corresponds to complete kill.

perennial ryegrass [3] = test: Perennial ryegrass turf quality field study, Pennsylvania 2004; conditions: in vivo
Procedure: (§3) Turf tolerance studies were conducted in monoculture stands of perennial ryegrass and tall fescue. Replicated trials, containing a minimum of three replications and having individual plots ranging in size from 25 to 50 ft. sq (2.3 to 4.6 square meters), were initiated in the late spring when turf was actively growing. […] Natural rainfall and supplemental irrigation, fertilizer, fungicides and insecticides were used to maintain healthy turf throughout the study period. Turf tolerance evaluations were made weekly for 8 weeks after application. Evaluations compared treated and untreated plot areas and consisted of one or all of the following evaluations: 1) visual estimate of turf injury made on a 0 to 10 scale with 0 indicating no visible injury symptoms, 10 being dead turf and 3 or less being commercially acceptable; 2) visual estimate of turf color made on a 0 to 10 scale with 0 being brown to dead turf, 10 being a lush green turf of highest quality and 6.5 being commercially acceptable; 3) visual estimate of turf density made on a 0 to 100 scale with 0 being bare ground, 100 being a thick solid stand of highest quality and 90 percent density being commercially acceptable; 4) visual estimate of turf quality made on a 0 to 10 scale with 0 being brown to dead turf, 10 being a lush green turf of highest quality and 6.5 being commercially acceptable.

perennial ryegrass [4] = test: Turf tolerance field study, perennial ryegrass, Indiana 2004; conditions: 21 Days After Treatment, g ai/Ha: penoxsulam 35, imazaquin 104, bispyribac-sodium 75, trifloxysulfuron-sodium 9.2, metsulfuron-methyl 10.4; for Color: 0 = brown to dead turf, 10 = lush green; for Injury: 0 = no visible injury, 10 = dead turf
Procedure: as §3

[5] = tested on: white clover, Trifolium repens L. (TRFRE); test: Postemergent weed control field study, Pennsylvania 2004, TRFRE; conditions: g ai/Ha: penoxsulam 35, imazaquin 104, bispyribac-sodium 75, trifloxysulfuron-sodium 9.2, metsulfuron-methyl 10.4; for Percent Weed Control TRFRE 29DAA: 29 Days After Application; for Percent Weed Control TRFRE 56DAA: 56 Days After Application
From the text: as §1
as §2, with “Granule treatments were uniformly applied to individual plots using a common hand-shaker method.” left out

tall fescue = test: Turf tolerance field study, tall fescue, Indiana 2004; conditions: 14 Days After Treatment, g ai/Ha: penoxsulam 35, imazaquin 104, bispyribac-sodium 75, trifloxysulfuron-sodium 9.2, metsulfuron-methyl 10.4; for Color: 0 = brown to dead turf, 10 = lush green; for Injury: 0 = no visible injury, 10 = dead turf
Procedure: as §3

[6] = tested on: dandelion, Taraxacum officinale (TAROF); test: Postemergent weed control field study, Pennsylvania 2004, TAROF; conditions: Granule formulation, g ai/Ha: penoxsulam 35, imazaquin 104, bispyribac-sodium 75, trifloxysulfuron-sodium 9.2, metsulfuron-methyl 10.4; for Percent Weed Control TAROF 29DAA: 29 Days After Application; for Percent Weed Control TAROF 56DAA: 56 Days After Application
From the text: as §1, §2

[7] = tested on: buckhorn plantain, Plantago lanceolata L. (PLALA); test: Postemergent weed control field study, Pennsylvania 2004, PLALA; conditions: g ai/Ha: penoxsulam 35, imazaquin 104, bispyribac-sodium 75, trifloxysulfuron-sodium 9.2, metsulfuron-methyl 10.4; for Percent Weed Control PLALA 29DAA: 29 Days After Application; for Percent Weed Control PLALA 56DAA: 56 Days After Application
From the text: as §1
as §2, with “Granule treatments were uniformly applied to individual plots using a common hand-shaker method.” left out

| SMILES | Percent Weed Control TAROF 29DAA [1] | Percent Weed Control TAROF 56DAA [1] | Percent Weed Control POANN 29DAA ([2]; Granule formulation) | Percent Weed Control POANN 56DAA ([2]; Granule formulation) | Percent Weed Control POANN 29DAA ([2]; Liquid formulation) | Percent Weed Control POANN 56DAA ([2]; Liquid formulation) | Turf Quality 36 DAA (perennial ryegrass [3]) | Color (perennial ryegrass [4]; Granule formulation) | Injury (perennial ryegrass [4]; Granule formulation) | Color (perennial ryegrass [4]; Liquid formulation) | Injury (perennial ryegrass [4]; Liquid formulation) | Percent Weed Control TRFRE 29DAA ([5]; Granule formulation) | Percent Weed Control TRFRE 56DAA ([5]; Granule formulation) | Percent Weed Control TRFRE 29DAA ([5]; Liquid formulation) | Percent Weed Control TRFRE 56DAA ([5]; Liquid formulation) | Color (tall fescue; Granule formulation) | Injury (tall fescue; Granule formulation) | Color (tall fescue; Liquid formulation) | Injury (tall fescue; Liquid formulation) | Percent Weed Control TAROF 29DAA [6] | further results |
| --- | --- | --- | --- | --- | --- | --- | --- | --- | --- | --- | --- | --- | --- | --- | --- | --- | --- | --- | --- | --- | --- |
| COC(=O)c1ccccc1S(=O)(=O)NC(=O)Nc1nc(C)nc(OC)n1 [Metsulfuron-methyl, metsulfuron-methyl] | 99.1% | 97.4% | 32.2% | 31.1% | 39.2% | 17.5% | 8.3 0 to 10 scale | 6.5 0-10 Scale | 4.5 0-10 Scale | 6.0 0-10 Scale | 6.0 0-10 Scale | 93.9% | 93.9% | 95.8% | 100.0% | 8.8 0-10 Scale | 0.8 0-10 Scale | 6.8 0-10 Scale | 4.3 0-10 Scale | 87.2% | Percent Weed Control TAROF 56DAA [6]: 67.2%; Percent Weed Control PLALA 29DAA ([7]; Granule formulation): 58.3%; Percent Weed Control PLALA 56DAA ([7]; Granule formulation): 85.0%; Percent Weed Control PLALA 29DAA ([7]; Liquid formulation): 97.7%; Percent Weed Control PLALA 56DAA ([7]; Liquid formulation): 78.9% |
| COc1cnc(OC)n2nc(NS(=O)(=O)c3c(OCC(F)F)cccc3C(F)(F)F)nc12 [Penoxsulam, penoxsulam] | 44.4% | 11.1% | 0.0% | 13.7% | 4.4% | 31.1% | 10.0 0 to 10 scale | 8.3 0-10 Scale | 1.5 0-10 Scale | 6.5 0-10 Scale | 4.3 0-10 Scale | 98.3% | 83.9% | 100.0% | 98.7% | 9.0 0-10 Scale | 0.3 0-10 Scale | 7.8 0-10 Scale | 3.0 0-10 Scale | 57.8% | Percent Weed Control TAROF 56DAA [6]: 34.4%; Percent Weed Control PLALA 29DAA ([7]; Granule formulation): 73.3%; Percent Weed Control PLALA 56DAA ([7]; Granule formulation): 43.3%; Percent Weed Control PLALA 29DAA ([7]; Liquid formulation): 41.7%; Percent Weed Control PLALA 56DAA ([7]; Liquid formulation): 70.6% |
